From article PMC4188605, “Biochemical and Pharmacological Characterization of the Human Lymphocyte Antigen B-Associated Transcript 5 (BAT5/ABHD16A)” (PLoS ONE, 2014)
“And” between values parts separate entries of the source, which are not always exact repeats. Equal values may be shown once. Read-outs that look alike come from different tables or passages of the source. Each block holds one compound with its values, some of them ahead of it.

What was measured:
[1] = target: T1, hBAT5 (Homo sapiens, UniProt O95870); test: Inhibition of 1-LG hydrolysis in hBAT5-HEK293 lysates (fluorescent glycerol assay); assay type: biochemical; set-up: host or cells: HEK293; settings: 1-LG 25 µM; 30 min inhibitor pretreatment; monitored 90 min; mean, n=3; read-out: IC50
T1 sequence (O95870 1-558): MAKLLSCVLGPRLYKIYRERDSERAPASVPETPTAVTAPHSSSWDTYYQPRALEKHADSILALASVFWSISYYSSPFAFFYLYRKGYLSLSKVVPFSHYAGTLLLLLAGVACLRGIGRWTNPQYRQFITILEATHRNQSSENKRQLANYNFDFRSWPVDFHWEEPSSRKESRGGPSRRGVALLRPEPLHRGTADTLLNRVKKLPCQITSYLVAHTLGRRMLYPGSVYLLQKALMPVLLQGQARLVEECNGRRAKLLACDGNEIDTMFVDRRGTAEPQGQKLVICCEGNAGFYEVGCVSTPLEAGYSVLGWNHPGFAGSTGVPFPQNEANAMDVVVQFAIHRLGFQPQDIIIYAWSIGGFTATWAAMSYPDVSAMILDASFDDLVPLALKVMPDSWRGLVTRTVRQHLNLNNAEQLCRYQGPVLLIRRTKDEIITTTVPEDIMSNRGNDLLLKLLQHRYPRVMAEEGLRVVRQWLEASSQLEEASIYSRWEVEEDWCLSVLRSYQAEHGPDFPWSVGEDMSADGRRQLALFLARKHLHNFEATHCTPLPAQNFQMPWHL

[2] = target: T2, ABHD6 (Mus musculus, UniProt Q8R2Y0); test: Competitive ABPP, mouse brain membrane proteome: ABHD6 band
T2 sequence (Q8R2Y0 1-336): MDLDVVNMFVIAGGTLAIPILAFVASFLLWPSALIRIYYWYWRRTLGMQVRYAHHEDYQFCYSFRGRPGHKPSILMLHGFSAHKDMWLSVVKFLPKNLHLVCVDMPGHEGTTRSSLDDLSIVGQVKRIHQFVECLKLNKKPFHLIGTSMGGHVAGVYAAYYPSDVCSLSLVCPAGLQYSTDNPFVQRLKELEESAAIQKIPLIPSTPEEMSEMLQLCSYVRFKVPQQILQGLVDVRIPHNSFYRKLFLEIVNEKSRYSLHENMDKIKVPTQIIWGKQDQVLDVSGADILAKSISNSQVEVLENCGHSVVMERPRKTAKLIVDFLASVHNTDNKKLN

[3] = target: T3, hABHD12 (Homo sapiens, UniProt Q8N2K0); set-up: method as in PMID 22969151; settings: hABHD12-HEK lysates; cited from earlier work
T3 construct: expressed in transfected cells; host or cells: HEK293
T3 sequence (Q8N2K0 1-398): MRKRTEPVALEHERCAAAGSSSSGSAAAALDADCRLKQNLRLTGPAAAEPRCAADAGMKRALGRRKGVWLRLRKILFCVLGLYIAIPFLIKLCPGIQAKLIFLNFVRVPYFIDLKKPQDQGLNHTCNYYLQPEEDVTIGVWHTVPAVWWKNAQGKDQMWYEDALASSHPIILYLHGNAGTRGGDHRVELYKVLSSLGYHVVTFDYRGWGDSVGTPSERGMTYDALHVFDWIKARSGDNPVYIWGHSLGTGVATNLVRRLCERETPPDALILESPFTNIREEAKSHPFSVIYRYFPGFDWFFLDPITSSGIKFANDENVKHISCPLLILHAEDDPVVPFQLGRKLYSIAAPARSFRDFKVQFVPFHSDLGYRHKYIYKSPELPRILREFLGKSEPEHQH

[4] = target: T4, BAT5 (Mus musculus, UniProt Q9Z1Q2); test: Competitive ABPP, mouse brain membrane proteome: BAT5 band; settings: for BAT5 selectivity among serine hydrolases as compared to 38: mouse brain membrane proteome, competitive ABPP
T4 sequence (Q9Z1Q2 1-558): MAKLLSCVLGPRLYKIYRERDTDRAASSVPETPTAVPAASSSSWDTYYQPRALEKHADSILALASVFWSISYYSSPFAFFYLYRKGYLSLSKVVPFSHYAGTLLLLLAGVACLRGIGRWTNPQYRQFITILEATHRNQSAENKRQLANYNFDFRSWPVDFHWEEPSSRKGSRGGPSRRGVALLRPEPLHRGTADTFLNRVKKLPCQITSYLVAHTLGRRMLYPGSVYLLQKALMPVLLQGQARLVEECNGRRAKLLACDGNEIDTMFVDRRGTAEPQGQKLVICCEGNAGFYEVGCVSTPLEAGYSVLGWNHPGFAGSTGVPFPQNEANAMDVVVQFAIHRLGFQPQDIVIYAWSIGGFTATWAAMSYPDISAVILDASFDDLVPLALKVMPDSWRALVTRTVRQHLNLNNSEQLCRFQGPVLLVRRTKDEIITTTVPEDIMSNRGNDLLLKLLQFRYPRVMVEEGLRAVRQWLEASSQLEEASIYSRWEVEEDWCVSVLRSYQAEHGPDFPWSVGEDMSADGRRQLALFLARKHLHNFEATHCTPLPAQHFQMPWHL

[5] = target: T5, hFAAH (Homo sapiens, UniProt O00519); test: FAAH activity assay, hFAAH-COS7 membranes (3H-anandamide); assay type: biochemical
T5 construct: expressed in transfected cells; host or cells: COS-7
T5 sequence (O00519 1-579): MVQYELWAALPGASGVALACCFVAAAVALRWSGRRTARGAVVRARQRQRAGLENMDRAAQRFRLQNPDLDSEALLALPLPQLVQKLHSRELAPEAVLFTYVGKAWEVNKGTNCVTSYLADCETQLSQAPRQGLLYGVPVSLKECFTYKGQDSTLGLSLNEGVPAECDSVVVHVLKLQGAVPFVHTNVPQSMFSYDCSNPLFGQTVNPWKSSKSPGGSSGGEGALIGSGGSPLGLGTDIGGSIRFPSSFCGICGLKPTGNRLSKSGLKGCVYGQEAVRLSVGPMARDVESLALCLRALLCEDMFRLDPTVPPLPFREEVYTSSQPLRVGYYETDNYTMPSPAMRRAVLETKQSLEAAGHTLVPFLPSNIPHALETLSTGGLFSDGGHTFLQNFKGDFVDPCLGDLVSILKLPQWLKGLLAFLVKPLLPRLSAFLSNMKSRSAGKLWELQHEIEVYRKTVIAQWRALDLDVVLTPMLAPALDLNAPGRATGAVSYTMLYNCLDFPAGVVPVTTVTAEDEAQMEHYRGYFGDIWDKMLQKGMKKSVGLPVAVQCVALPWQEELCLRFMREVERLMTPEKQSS

[6] = target: T6, hMAGL (Homo sapiens, UniProt Q99685); test: Hydrolase activity assay, hMAGL-HEK lysates; assay type: biochemical; settings: at 10^−5 M; read-out: Remaining activity
T6 construct: expressed in transfected cells; host or cells: HEK
T6 sequence (Q99685 1-303): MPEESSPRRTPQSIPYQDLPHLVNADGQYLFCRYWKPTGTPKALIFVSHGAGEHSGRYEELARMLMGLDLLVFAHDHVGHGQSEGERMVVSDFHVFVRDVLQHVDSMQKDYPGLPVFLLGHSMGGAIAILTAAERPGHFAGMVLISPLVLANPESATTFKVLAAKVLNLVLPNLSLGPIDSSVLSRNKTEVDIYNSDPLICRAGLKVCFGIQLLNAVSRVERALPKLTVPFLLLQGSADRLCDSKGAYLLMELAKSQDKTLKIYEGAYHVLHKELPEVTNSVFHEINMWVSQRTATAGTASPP

[7] = target: T6, hMAGL; settings: 15d-PGJ2-G as substrate for hMAGL; cited from earlier work
[8] = target: T1, hBAT5; test: hBAT5 substrate hydrolysis and Michaelis-Menten kinetics (glycerol assay, hBAT5-HEK293 lysates); settings: with 0.5% BSA
Protocol: HEK293 cells were transiently transfected with the cDNA encoding hBAT5, as detailed in the Methods section. After 48 h, cells were harvested and lysates prepared for hydrolase activity measurements using a sensitive fluorescent glycerol assay. […] Glycerol production was determined at time-point 60 min.
After 48 h, cells were harvested and lysates prepared for hydrolase activity measurements. Cellular lysates (0.3 µg/well) were incubated together with the indicated concentrations of 1-LG in assay mixes containing (+ BSA) or not (– BSA) 0.5% (w/v) BSA (A) or with 15d-PGJ2-G in assay mix containing BSA (B). […] As crude cellular lysates were used, total protein concentration was used instead of true enzyme concentration. […] Values are mean ± SEM from three independent experiments.
Glycerol liberated from the hydrolysis of glycerolipid substrates was determined kinetically using a fluorometric assay, essentially as previously described [10]. Briefly, glycerol production was coupled via a three-step enzymatic cascade to hydrogen peroxide (H2O2) dependent generation of resorufin whose fluorescence (λex 530; λem 590 nm) was kinetically monitored using a Tecan Infinite M200 plate reader (Tecan Group Ltd., Männedorf, Switzerland). The assays routinely contained 0.5% (w/v) BSA (essentially fatty acid free) as a carrier for lipophilic compounds. […] The twelve MAG substrates were tested also in assays without BSA. In addition, four commercially available PG-Gs were included. To monitor assay performance, assay blanks without enzyme, cellular background (HEK293/Mock cell lysates) as well as a glycerol standard were included for each tested substrate. Fluorescence of the assay blank was subtracted before calculation of the final results.

[9] = target: T7, MAGL (Mus musculus, UniProt O35678); test: Competitive ABPP, mouse brain membrane proteome: MAGL doublet
T7 sequence (O35678 1-303): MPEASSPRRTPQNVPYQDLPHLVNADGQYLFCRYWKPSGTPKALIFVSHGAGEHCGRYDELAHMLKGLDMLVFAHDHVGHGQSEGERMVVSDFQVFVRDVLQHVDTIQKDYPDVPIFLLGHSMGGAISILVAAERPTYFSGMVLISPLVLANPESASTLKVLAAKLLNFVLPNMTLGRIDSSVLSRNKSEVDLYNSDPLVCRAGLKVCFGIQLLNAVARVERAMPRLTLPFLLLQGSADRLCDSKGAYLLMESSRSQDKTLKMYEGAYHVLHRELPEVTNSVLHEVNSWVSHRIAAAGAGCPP

[10] = target: T8, FAAH (Mus musculus, UniProt O08914); test: Competitive ABPP, mouse brain membrane proteome: FAAH band
T8 sequence (O08914 1-579): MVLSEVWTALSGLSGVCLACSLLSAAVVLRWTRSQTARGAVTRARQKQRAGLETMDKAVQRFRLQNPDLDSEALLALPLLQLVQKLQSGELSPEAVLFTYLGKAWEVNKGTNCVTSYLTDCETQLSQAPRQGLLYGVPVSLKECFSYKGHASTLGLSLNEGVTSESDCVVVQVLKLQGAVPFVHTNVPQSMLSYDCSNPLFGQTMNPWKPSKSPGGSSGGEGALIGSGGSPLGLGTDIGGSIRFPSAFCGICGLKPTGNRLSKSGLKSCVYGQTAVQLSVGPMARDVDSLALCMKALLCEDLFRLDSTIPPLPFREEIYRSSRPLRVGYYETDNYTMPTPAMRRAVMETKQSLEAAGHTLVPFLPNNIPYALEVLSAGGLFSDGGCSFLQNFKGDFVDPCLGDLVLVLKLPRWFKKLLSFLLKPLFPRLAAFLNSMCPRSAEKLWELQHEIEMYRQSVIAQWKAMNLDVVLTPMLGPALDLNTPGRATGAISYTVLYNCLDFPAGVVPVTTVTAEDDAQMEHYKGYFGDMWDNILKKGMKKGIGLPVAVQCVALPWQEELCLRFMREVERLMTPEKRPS

[11] = target: T9, KIAA1363 (Mus musculus, UniProt Q8BLF1); test: Competitive ABPP, mouse brain membrane proteome: KIAA1363 doublet; assay type: binding; settings: 1 µM or indicated concentrations (Figure 11); 60 min
T9 construct: from tissue; host or cells: mouse whole brain membranes
T9 sequence (Q8BLF1 1-408): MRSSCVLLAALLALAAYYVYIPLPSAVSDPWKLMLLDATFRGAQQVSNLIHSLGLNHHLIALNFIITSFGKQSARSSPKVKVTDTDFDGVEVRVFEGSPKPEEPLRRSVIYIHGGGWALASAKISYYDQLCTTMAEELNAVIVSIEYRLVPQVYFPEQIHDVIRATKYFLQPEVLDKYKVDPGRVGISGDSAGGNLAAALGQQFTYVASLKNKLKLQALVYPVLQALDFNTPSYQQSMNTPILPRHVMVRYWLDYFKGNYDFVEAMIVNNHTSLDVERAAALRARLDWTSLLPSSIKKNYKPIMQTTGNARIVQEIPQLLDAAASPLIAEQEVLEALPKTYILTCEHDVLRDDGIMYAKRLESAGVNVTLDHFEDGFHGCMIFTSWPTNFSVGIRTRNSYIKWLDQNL

[12] = tested on: LYPLA1/2; test: Competitive ABPP, mouse brain membrane proteome: LYPLA1/2 band; settings: 1 µM or indicated concentrations (Figure 11); 60 min
[13] = 1 µM or indicated concentrations (Figure 11), 60 min

Structure (SMILES): CCCCCCCCCCC[C@@H](C[C@@H]1OC(=O)[C@H]1CCCCCC)OC(=O)[C@H](CC(C)C)NC=O [THL, tetrahydrolipstatin]
- IC50 [1]: 0.17 µM
- inhibition of probe labeling of ABHD6 by reference inhibitor [2]: inhibited
- IC50 [3]: 0.193 µM
- inhibition of probe labeling of BAT5 by reference inhibitor ([4]; reference inhibitor at the indicated concentration, used to identify the band (refs 4, 18)): inhibited
- remaining activity at 10 µM [5]: 100%
- remaining activity at 10 µM [6]: 88.1%

- hydrolysis by hBAT5 (substrate utilization, in words) ([8]; 25 µM substrate, 60 min): readily hydrolyzed
- Km ([8]; substrate of hBAT5, time-point 90 min, n=3): 20.9 µM and ~21 µM
- Vmax ([8]; substrate of hBAT5, total lysate protein, n=3): 3.0 ± 0.2 nmol/mg/min
Structure (SMILES): CCCCC/C=C/C=C1/C(=O)C=CC1C/C=C\CCCC(=O)OC(CO)CO (stereo not drawn) [15d-PGJ2-G, 15-deoxy-Δ^12,14-prostaglandin J2-2-glycerol ester]
- Km [7]: ~15 µM

Structure (SMILES): O=C(Oc1ccc([N+](=O)[O-])cc1)N1CCN(Cc2cccc(Oc3ccccc3)c2)CC1 [JZL195]
- inhibition of probe labeling of MAGL by reference inhibitor ([9]; reference inhibitor at the indicated concentration, used to identify the band (refs 21, 22)): inhibited
- inhibition of probe labeling of ABHD6 by reference inhibitor ([2]; reference inhibitor at the indicated concentration, used to identify the band (refs 18, 23, 24)): inhibited
- inhibition of probe labeling of FAAH by reference inhibitor ([10]; reference inhibitor at the indicated concentration, used to identify the band (ref 21)): inhibited

Structure (SMILES): COc1nn(-c2ccc(F)cc2)c(=O)o1 [compound 44]
- inhibition of probe binding to KIAA1363 [11]: shared one off-target with 38
- BAT5 selectivity among serine hydrolases as compared to 38 [4]: improved BAT5 selectivity

- inhibition of probe binding to MAGL [9, 13]: did not visibly affect probe binding
- IC50 [1]: 0.063 µM
- inhibition of probe binding to KIAA1363 [11]: did not visibly affect probe binding
- inhibition of probe binding to FAAH [10, 13]: did not visibly affect probe binding
- BAT5 selectivity among serine hydrolases as compared to 38 [4]: improved BAT5 selectivity
- inhibition of probe binding to LYPLA1/2 [12]: did not visibly affect probe binding
Structure (SMILES): COc1nn(-c2cccc([N+](=O)[O-])c2)c(=O)o1 [compound 40, 5-Methoxy-3-(3-nitrophenyl)-1,3,4-oxadiazol-2(3H)-one]
